In PubChem BioAssay (NCI):
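Cultured in 96-well plates, cells were exposed to test compound for 48 hours across five concentrations. GI50 marks 50% less growth. The concentration for full growth arrest is given as TGI.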

Tests used:
Test in all cases: inhibition of tumour cell growth, NCI panel, 48 h
RPMI-8226 leukemia = test system: RPMI-8226 leukemia
HS 578T breast = test system: HS 578T breast
LOX IMVI melanoma = test system: LOX IMVI melanoma
SNB-75 CNS = test system: SNB-75 CNS
MDA-MB-468 breast = test system: MDA-MB-468 breast
CAKI-1 renal = test system: CAKI-1 renal
OVCAR-5 ovarian = test system: OVCAR-5 ovarian
MOLT-4 leukemia = test system: MOLT-4 leukemia
A549 NSCLC = test system: A549 NSCLC
NCI-H522 lung = test system: NCI-H522 lung
OVCAR-8 ovarian = test system: OVCAR-8 ovarian
SK-MEL-5 melanoma = test system: SK-MEL-5 melanoma
HL-60(TB) leukemia = test system: HL-60(TB) leukemia
SF-295 CNS = test system: SF-295 CNS
SK-MEL-2 melanoma = test system: SK-MEL-2 melanoma
MCF7 breast = test system: MCF7 breast
DU-145 prostate = test system: DU-145 prostate
UACC-257 melanoma = test system: UACC-257 melanoma
SF-268 CNS = test system: SF-268 CNS
NCI-H23 lung = test system: NCI-H23 lung
786-0 renal = test system: 786-0 renal
MDA-MB-231 breast = test system: MDA-MB-231 breast
SK-MEL-28 melanoma = test system: SK-MEL-28 melanoma
SNB-19 CNS = test system: SNB-19 CNS
M14 melanoma = test system: M14 melanoma
CCRF-CEM leukemia = test system: CCRF-CEM leukemia
UO-31 renal = test system: UO-31 renal
HCT-116 colon = test system: HCT-116 colon
NCI-H460 lung = test system: NCI-H460 lung
SR leukemia = test system: SR leukemia
IGROV1 ovarian = test system: IGROV1 ovarian
MDA-MB-435 = test system: MDA-MB-435
SF-539 CNS = test system: SF-539 CNS
U251 CNS = test system: U251 CNS
EKVX NSCLC = test system: EKVX NSCLC
HT29 colon = test system: HT29 colon
KM12 colon = test system: KM12 colon
HOP-62 NSCLC = test system: HOP-62 NSCLC
SK-OV-3 ovarian = test system: SK-OV-3 ovarian
A498 renal = test system: A498 renal
SN12C renal = test system: SN12C renal
PC-3 prostate = test system: PC-3 prostate
TK-10 renal = test system: TK-10 renal
UACC-62 melanoma = test system: UACC-62 melanoma
MALME-3M melanoma = test system: MALME-3M melanoma
K-562 leukemia = test system: K-562 leukemia
NCI-H226 lung = test system: NCI-H226 lung
BT-549 breast = test system: BT-549 breast
HCT-15 colon = test system: HCT-15 colon
OVCAR-4 ovarian = test system: OVCAR-4 ovarian
OVCAR-3 ovarian = test system: OVCAR-3 ovarian
HOP-92 NSCLC = test system: HOP-92 NSCLC
T-47D breast = test system: T-47D breast
ACHN renal = test system: ACHN renal
RXF 393 renal = test system: RXF 393 renal
HCC-2998 colon = test system: HCC-2998 colon
COLO 205 colon = test system: COLO 205 colon
SW-620 colon = test system: SW-620 colon

O=C(/C=C/c1cccc(Br)c1)c1nc2ccccc2n1Cc1ccc(F)cc1
GI50 (RPMI-8226 leukemia): 4.02 µM
TGI (RPMI-8226 leukemia): > 100 µM
GI50 (HS 578T breast): 9.74 µM
TGI (HS 578T breast): > 100 µM
GI50 (LOX IMVI melanoma): 2.87 µM
TGI (LOX IMVI melanoma): 10.5 µM
GI50 (SNB-75 CNS): 3.24 µM
TGI (SNB-75 CNS): 68.1 µM
GI50 (MDA-MB-468 breast): 5.02 µM
TGI (MDA-MB-468 breast): 18.2 µM
GI50 (CAKI-1 renal): 5.72 µM
TGI (CAKI-1 renal): 32.5 µM
GI50 (OVCAR-5 ovarian): 11.8 µM
TGI (OVCAR-5 ovarian): 27.7 µM
GI50 (MOLT-4 leukemia): 3.85 µM
TGI (MOLT-4 leukemia): > 100 µM
GI50 (A549 NSCLC): 14.2 µM
TGI (A549 NSCLC): 96.3 µM
GI50 (NCI-H522 lung): 10.9 µM
TGI (NCI-H522 lung): 32.7 µM
GI50 (OVCAR-8 ovarian): 5.05 µM
TGI (OVCAR-8 ovarian): 27.1 µM
GI50 (SK-MEL-5 melanoma): 10.3 µM
TGI (SK-MEL-5 melanoma): 23.2 µM
GI50 (HL-60(TB) leukemia): 4.06 µM
TGI (HL-60(TB) leukemia): 26.7 µM
GI50 (SF-295 CNS): 11.3 µM
TGI (SF-295 CNS): 27.1 µM
GI50 (SK-MEL-2 melanoma): 11.6 µM
TGI (SK-MEL-2 melanoma): 29.6 µM
GI50 (MCF7 breast): 2.83 µM
TGI (MCF7 breast): 16.7 µM
GI50 (DU-145 prostate): 12.6 µM
TGI (DU-145 prostate): 47.6 µM
GI50 (UACC-257 melanoma): 10.7 µM
TGI (UACC-257 melanoma): 31.1 µM
GI50 (SF-268 CNS): 16.7 µM
TGI (SF-268 CNS): > 100 µM
GI50 (NCI-H23 lung): 9.04 µM
TGI (NCI-H23 lung): 26 µM
GI50 (786-0 renal): 11.8 µM
TGI (786-0 renal): 26.2 µM
GI50 (MDA-MB-231 breast): 6.59 µM
TGI (MDA-MB-231 breast): 27.2 µM
GI50 (SK-MEL-28 melanoma): 9.33 µM
TGI (SK-MEL-28 melanoma): 23.1 µM
GI50 (SNB-19 CNS): 11.2 µM
TGI (SNB-19 CNS): 25.3 µM
GI50 (M14 melanoma): 10.6 µM
TGI (M14 melanoma): 26.1 µM
GI50 (CCRF-CEM leukemia): 3.83 µM
TGI (CCRF-CEM leukemia): > 100 µM
GI50 (UO-31 renal): 5.17 µM
TGI (UO-31 renal): 18.9 µM
GI50 (HCT-116 colon): 3.79 µM
TGI (HCT-116 colon): 14.2 µM
GI50 (NCI-H460 lung): 4.65 µM
TGI (NCI-H460 lung): 20 µM
GI50 (SR leukemia): 4.73 µM
TGI (SR leukemia): > 100 µM
GI50 (IGROV1 ovarian): 8.02 µM
TGI (IGROV1 ovarian): 32.4 µM
GI50 (MDA-MB-435): 3.87 µM
TGI (MDA-MB-435): 16.2 µM
GI50 (SF-539 CNS): 13.6 µM
TGI (SF-539 CNS): 26.8 µM
GI50 (U251 CNS): 5.49 µM
TGI (U251 CNS): 20.3 µM
GI50 (EKVX NSCLC): 11.5 µM
TGI (EKVX NSCLC): 28.6 µM
GI50 (HT29 colon): 5.23 µM
TGI (HT29 colon): 20.6 µM
GI50 (KM12 colon): 5.52 µM
TGI (KM12 colon): 22.4 µM
GI50 (HOP-62 NSCLC): 14.6 µM
TGI (HOP-62 NSCLC): 38.8 µM
GI50 (SK-OV-3 ovarian): 62.4 µM
TGI (SK-OV-3 ovarian): > 100 µM
GI50 (A498 renal): 54.3 µM
TGI (A498 renal): > 100 µM
GI50 (SN12C renal): 14.9 µM
TGI (SN12C renal): 40.1 µM
GI50 (PC-3 prostate): 6.42 µM
TGI (PC-3 prostate): 34.3 µM
GI50 (TK-10 renal): 17.1 µM
TGI (TK-10 renal): 57.5 µM
GI50 (UACC-62 melanoma): 4.67 µM
TGI (UACC-62 melanoma): 18.2 µM
GI50 (MALME-3M melanoma): 11.6 µM
TGI (MALME-3M melanoma): 26 µM
GI50 (K-562 leukemia): 3.75 µM
TGI (K-562 leukemia): > 100 µM
GI50 (NCI-H226 lung): 17 µM
TGI (NCI-H226 lung): 44 µM
GI50 (BT-549 breast): 3.87 µM
TGI (BT-549 breast): 16.5 µM
GI50 (HCT-15 colon): 3.65 µM
TGI (HCT-15 colon): 14.6 µM
GI50 (OVCAR-4 ovarian): 14.5 µM
TGI (OVCAR-4 ovarian): > 100 µM
GI50 (OVCAR-3 ovarian): 4.17 µM
TGI (OVCAR-3 ovarian): 16.9 µM
GI50 (HOP-92 NSCLC): 3.26 µM
TGI (HOP-92 NSCLC): 35 µM
GI50 (T-47D breast): 5.01 µM
TGI (T-47D breast): 84.2 µM
GI50 (ACHN renal): 13.3 µM
TGI (ACHN renal): 40.6 µM
GI50 (RXF 393 renal): 4.04 µM
TGI (RXF 393 renal): 15.9 µM
GI50 (HCC-2998 colon): 11.4 µM
TGI (HCC-2998 colon): 24.2 µM
GI50 (COLO 205 colon): 16.6 µM
TGI (COLO 205 colon): 36.2 µM
GI50 (SW-620 colon): 3.8 µM
TGI (SW-620 colon): 14.6 µM
